Patent publication US20250032426A1, “PHARMACEUTICAL COMPOSITIONS” (SpecNova LLC, priority 2021, published 2025)

Target: Human Dopamine Transporter (DAT) (Homo sapiens, UniProt Q01959)
Assay: Human Dopamine Transporter (DAT) Binding (Antagonist Radioligand) Assay
Details: for % of Control Specific Binding (1st Test) / % of Control Specific Binding (2nd Test) / % Inhibition of Control Specific Binding / % of Control Specific Binding (mean of two tests): [3H]BTCP 4 nM radioligand; for % Inhibition of Control Specific Binding: cell membrane homogenates, 120 min at 4° C., test concentration not given; for level of inhibition in the dopamine transporter inhibitory assay (in words): qualitative statement in the description
Method: Human Dopamine Transporter (DAT) Binding (Antagonist Radioligand) Assay
Nonspecific binding is determined in the presence of 10 μM BTCP. Following incubation, the samples are filtered rapidly under vacuum through glass fiber filters (GF/B, Packard) presoaked with 0.3% PEI and rinsed several times with ice-cold 50 mM Tris-HCl using a 96-sample cell harvester (Unifilter, Packard). The filters are dried then counted for radioactivity in a scintillation counter (Topcount, Packard) using a scintillation cocktail (Microscint 0, Packard). The results are expressed as a percent inhibition of the control radioligand specific binding.

Chain of Human Dopamine Transporter (DAT) (Q01959 whole entry): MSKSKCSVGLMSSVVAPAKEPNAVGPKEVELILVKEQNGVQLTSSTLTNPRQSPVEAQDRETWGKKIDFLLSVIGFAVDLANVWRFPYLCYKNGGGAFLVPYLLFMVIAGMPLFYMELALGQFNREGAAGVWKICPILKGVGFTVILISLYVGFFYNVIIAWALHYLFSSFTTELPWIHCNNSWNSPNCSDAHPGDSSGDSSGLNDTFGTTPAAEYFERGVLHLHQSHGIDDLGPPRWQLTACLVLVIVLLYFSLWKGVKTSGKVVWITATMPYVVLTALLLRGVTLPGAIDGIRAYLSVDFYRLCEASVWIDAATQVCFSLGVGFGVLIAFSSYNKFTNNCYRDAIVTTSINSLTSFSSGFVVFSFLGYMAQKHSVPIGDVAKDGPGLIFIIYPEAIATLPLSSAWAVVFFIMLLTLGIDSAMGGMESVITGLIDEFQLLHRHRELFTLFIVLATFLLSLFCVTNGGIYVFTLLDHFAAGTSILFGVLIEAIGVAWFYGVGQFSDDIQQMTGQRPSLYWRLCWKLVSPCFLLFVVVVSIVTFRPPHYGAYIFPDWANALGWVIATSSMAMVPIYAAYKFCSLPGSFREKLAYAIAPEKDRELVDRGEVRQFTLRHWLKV

SMILES | % of Control Specific Binding (1st Test) [%] | % of Control Specific Binding (2nd Test) [%] | % Inhibition of Control Specific Binding [%] | % of Control Specific Binding (mean of two tests) [%] | level of inhibition in the dopamine transporter inhibitory assay (in words)
OC[C@@H](O)[C@@H](/C=C/c1ccc(O)cc1)c1ccc(O)cc1 [Agatharesinol, (2S,3S,4E)-3,5-bis(4-hydroxyphenyl)pent-4-ene-1,2-diol] | 4.2 | 5 | 95 | 4.6 | extremely high level of inhibition
OC[C@@H](O)[C@@H](/C=C/c1ccc(O)cc1)c1ccc(O)c(O)c1 [Sequirin C, 4-[(1S,2E)-1-[(1S)-1,2-dihydroxyethyl]-3-(4-hydroxyphenyl)prop-2-en-1-yl]benzene-1,2-diol] | 7.4 | 5.6 | 94 | 6.5 | extremely high level of inhibition
CC(C)=CCc1c(C2CCc3ccc(O)cc3O2)ccc(O)c1O (stereo in doubt) [Kazinol U, 4-[(2S)-7-hydroxy-3,4-dihydro-2H-chromen-2-yl]-3-(3-methylbut-2-enyl) benzene-1,2-diol] | 33.6 | 42.8 | 62 | 38.2 | high level of inhibition
